Patent US8834843B2, “Imaging method” (GE Healthcare Limited, priority 2007, dated 2014)
Read-outs that look alike come from different tables or passages of the source. Numbered stars: 1 amine (or outer) side, 2 acyl side, 3 side chain; on linkers, the order of the positions; unused ones are H or OH. Bridge positions count the residues as written; N and C are the ends. Side chains are listed from the residue outwards. Peptide text beside a SMILES is read from it. * marks the point of attachment. X1 = C/C(=N\O)C(C)(C)NCCC(CCNC(C)(C)/C(C)=N/O)CCN*; Glutaryl = O=C(CCCC(=O)[*:2])[*:1]; X2 = NC(=O)COCC(=O)NCCOCCOCCOCCN*

What was measured:
αv integrin = test: Liver uptake vs alpha-v integrin expression (ELISA) in BDL rat liver; assay type: in vivo; settings: BDL animals
Experimental: The BDL and sham animal models were set up as described in Example 3. At each of 2, 15 and 28 days post-operatively, ˜3 MBq Compound 8 was administered to animals and the liver uptake assessed as described in Example 3.
The expression of αv integrin in the animals' livers was measured in homogenised livers of BDL- and sham-operated animals. At each of 2, 15 and 28 days post-operatively, animals were sacrificed and their livers removed and stored at −70° C.
Pre-weighed livers were removed from −70° C. freezer and placed into pre-cooled mortar and pestle in the presence of low amount of liquid nitrogen. Liver was crushed to almost a homogenous powder (during the crushing of the liver a small amount of liquid nitrogen was added to keep the tissue frozen at all times). […]
The homogenate was transferred into a pre-chilled glass tissue Dounce and three up and down strokes of the pestle were applied at 4° C. […] Relative protein concentration was determined in each sample using a commercial protein assay kit with BSA standards according to the manufacturer's instruction (Pierce, USA) (BSA aliquots should be made in modified RIPA buffer that was used for the homogenisation). Supernatant from each sample was further diluted between 1:50 and 1:200 in H2O and protein concentration was determined using a […] multi-well Plate reader (iEMS). […]

[1] = Biodistribution in sham-operated rats with and without excess cold compound; assay type: in vivo; settings: male, Sprague Dawley, rat, iv, total radioactivity, 15 days post-op, 1 hour post-injection; for dose excreted at 1 h: bile and urine
Experimental: On the appropriate day post surgery BDL and sham animals were removed and put under isoflurane anaesthesia, then each animal was injected with 0.3 ml intravenously (i.v.) via tail vein (˜3MBq). At the appropriate time point post-injection of the test item, each animal was re-anaesthetised with isoflurane, sacrificed by cervical dislocation weighed and the weight recorded via a barcode scanning system. Each animal was dissected and the following organs and tissues were removed and counted using BASIL counter protocol 40 or manual counting:
The recorded activity in a whole organ (e.g., liver) was corrected for background radioactivity and for radioactive decay and the biodistribution of radioactivity calculated by reference to Formula I:
[formula] where: • A=counts per second measured in organ • B=total counts per second measured in all samples (excluding the injection site)
The percentage of injected radioactivity in the weighed tissue samples (e.g., blood) was calculated to give % i.d. in the entire tissue by reference to Formula 2:
[formula] where: • Zs=counts per second in sample • Ws=weight of sample in grams • Wb=weight of animal in grams immediately after sacrifice • B=total counts per second measured in all the samples (excluding the injection site) • F=tissue specific factor representing the mass of the tissue as a proportion of the total body weight of the animal
The biodistribution of radioactivity was investigated in 15 days post-operatively in BDL and sham-operated male Sprague Dawley rats (procedures described in Example 3) 1 hour following of intravenous injection via tail vein of ˜3 MBq of Compound 8, both before and after addition of 1:100 and 1:10,000 fold excess of cold Compound 8. At the appropriate time point post-injection of the test Item, each animal was re-anaesthetised with isoflurane, sacrificed by cervical dislocation and weighed. Each animal was dissected and organs and tissues (see Tables 5 and 6 below) were removed and counted using BASIL counter protocol 40 or manual counting.

For `C/C(=N\O)C(C)(C)NCCC(CCNC(=O)CCCC(=O)NCCCC[C@@H]1NC(=O)CSC[C@@H](C(=O)NCCOCCOCCOCCNC(=O)COCC(N)=O)NC(=O)[C@H](Cc2ccccc2)NC(=O)[C@@H]2CSSC[C@H](NC1=O)C(=O)N[C@@H](CCCNC(=N)N)C(=O)NCC(=O)N[C@@H](CC(=O)O)C(=O)N2)CCNC(C)(C)/C(C)=N/O` (stereo partly shown) [Compound 8] ({CH2CO}-K([Glutaryl-X1])CRGDCFC-X2; disulfide 2-6; thioether N-8), the “Correlation of αv integrin expression with liver uptake (in words)” value (αv integrin) was “correlation”, the dose excreted at 1 h ([1]; +10K-fold excess cold Compound 8) was 46.5% and the dose excreted at 1 h ([1]; +100-fold excess cold Compound 8) was 43.2%. For the same molecule, the dose excreted at 1 h ([1]; no excess) was 44.6%, the tissue uptake dose at 1 h ([1]; blood, +10K-fold excess cold Compound 8, read-out: Activity in Blood, Mean) was 1.4 %ID and the tissue uptake dose at 1 h ([1]; blood, +100-fold excess cold Compound 8, read-out: Activity in Blood, Mean) was 1.37 %ID. The tissue uptake dose at 1 h ([1]; blood, no excess, read-out: Activity in Blood, Mean) was 1.55 %ID, the tissue uptake dose at 1 h ([1]; bone, 3 MBq, +10K-fold excess cold Compound 8, read-out: Activity in Bone, Mean) was 2.42 %ID and the tissue uptake dose at 1 h ([1]; bone, 3 MBq, +100-fold excess cold Compound 8, read-out: Activity in Bone, Mean) was 3.06 %ID. The tissue uptake dose at 1 h ([1]; bone, 3 MBq, no excess, read-out: Activity in Bone, Mean) was 3.1 %ID, the tissue uptake dose at 1 h ([1]; carcass, 3 MBq, +10K-fold excess cold Compound 8, read-out: Activity in Carcass, Mean) was 11.6 %ID and the tissue uptake dose at 1 h ([1]; carcass, 3 MBq, +100-fold excess cold Compound 8, read-out: Activity in Carcass, Mean) was 9.32 %ID. The tissue uptake dose at 1 h ([1]; carcass, 3 MBq, no excess, read-out: Activity in Carcass, Mean) was 8.45 %ID, the tissue uptake dose at 1 h ([1]; heart, 3 MBq, +10K-fold excess cold Compound 8, read-out: Activity in Heart, Mean) was 0.1 %ID and the tissue uptake dose at 1 h ([1]; heart, 3 MBq, +100-fold excess cold Compound 8, read-out: Activity in Heart, Mean) was 0.1 %ID. For the same molecule, the tissue uptake dose at 1 h ([1]; heart, 3 MBq, no excess, read-out: Activity in Heart, Mean) was 0.12 %ID, the tissue uptake dose at 1 h ([1]; injection site, 3 MBq, +10K-fold excess cold Compound 8, read-out: Activity in Injection Site, Mean) was 1.71 %ID and the tissue uptake dose at 1 h ([1]; injection site, 3 MBq, +100-fold excess cold Compound 8, read-out: Activity in Injection Site, Mean) was 1.44 %ID. It also gave a tissue uptake dose at 1 h ([1]; injection site, 3 MBq, no excess, read-out: Activity in Injection Site, Mean) of 1.66 %ID, a tissue uptake dose at 1 h ([1]; kidneys, +10K-fold excess cold Compound 8, read-out: Activity in Kidneys, Mean) of 3.65 %ID and a tissue uptake dose at 1 h ([1]; kidneys, +100-fold excess cold Compound 8, read-out: Activity in Kidneys, Mean) of 4.13 %ID. The tissue uptake dose at 1 h ([1]; kidneys, no excess, read-out: Activity in Kidneys, Mean) was 4.07 %ID, the tissue uptake dose at 1 h ([1]; liver, 3 MBq, +10K-fold excess cold Compound 8, read-out: Activity in Liver, Mean) was 3.03 %ID and the tissue uptake dose at 1 h ([1]; liver, 3 MBq, +100-fold excess cold Compound 8, read-out: Activity in Liver, Mean) was 3.52 %ID. The tissue uptake dose at 1 h ([1]; liver, 3 MBq, no excess, read-out: Activity in Liver, Mean) was 3.71 %ID, the tissue uptake dose at 1 h ([1]; lung, 3 MBq, +10K-fold excess cold Compound 8, read-out: Activity in Lung, Mean) was 0.39 %ID and the tissue uptake dose at 1 h ([1]; lung, 3 MBq, +100-fold excess cold Compound 8, read-out: Activity in Lung, Mean) was 0.38 %ID. It also gave a tissue uptake dose at 1 h ([1]; lung, 3 MBq, no excess, read-out: Activity in Lung, Mean) of 0.46 %ID, a tissue uptake dose at 1 h ([1]; muscle, 3 MBq, +100-fold excess cold Compound 8, read-out: Activity in Muscle, Mean) of 10.9 %ID and a tissue uptake dose at 1 h ([1]; muscle, 3 MBq, no excess, read-out: Activity in Muscle, Mean) of 10.4 %ID. It also gave a tissue uptake dose at 1 h ([1]; muscle, +10K-fold excess cold Compound 8, read-out: Activity in Muscle, Mean) of 8.41 %ID, a tissue uptake dose at 1 h ([1]; skin, 3 MBq, +10K-fold excess cold Compound 8, read-out: Activity in Skin, Mean) of 12.7 %ID and a tissue uptake dose at 1 h ([1]; skin, 3 MBq, +100-fold excess cold Compound 8, read-out: Activity in Skin, Mean) of 14 %ID. It also gave a tissue uptake dose at 1 h ([1]; skin, 3 MBq, no excess, read-out: Activity in Skin, Mean) of 14.4 %ID, a tissue uptake dose at 1 h ([1]; small and large intestine, 3 MBq, +10K-fold excess cold Compound 8, read-out: Activity in Small & Large Intestine, Mean) of 7.54 %ID and a tissue uptake dose at 1 h ([1]; small and large intestine, 3 MBq, +100-fold excess cold Compound 8, read-out: Activity in Small & Large Intestine, Mean) of 8.42 %ID. The tissue uptake dose at 1 h ([1]; small and large intestine, 3 MBq, no excess, read-out: Activity in Small & Large Intestine, Mean) was 7.86 %ID, the tissue uptake dose at 1 h ([1]; spleen, 3 MBq, +10K-fold excess cold Compound 8, read-out: Activity in Spleen, Mean) was 0.27 %ID and the tissue uptake dose at 1 h ([1]; spleen, 3 MBq, +100-fold excess cold Compound 8, read-out: Activity in Spleen, Mean) was 0.29 %ID. It also gave a tissue uptake dose at 1 h ([1]; spleen, 3 MBq, no excess, read-out: Activity in Spleen, Mean) of 0.29 %ID, a tissue uptake dose at 1 h ([1]; stomach, 3 MBq, +10K-fold excess cold Compound 8, read-out: Activity in Stomach, Mean) of 1.92 %ID and a tissue uptake dose at 1 h ([1]; stomach, 3 MBq, +100-fold excess cold Compound 8, read-out: Activity in Stomach, Mean) of 1.21 %ID. The tissue uptake dose at 1 h ([1]; stomach, 3 MBq, no excess, read-out: Activity in Stomach, Mean) was 0.9 %ID, the tissue uptake dose at 1 h ([1]; thyroid, 3 MBq, +10K-fold excess cold Compound 8, read-out: Activity in Thyroid, Mean) was 0.04 %ID and the tissue uptake dose at 1 h ([1]; thyroid, 3 MBq, +100-fold excess cold Compound 8, read-out: Activity in Thyroid, Mean) was 0.05 %ID. For the same molecule, the tissue uptake dose at 1 h ([1]; thyroid, 3 MBq, no excess, read-out: Activity in Thyroid, Mean) was 0.05 %ID.
